In the supplement of paper PMC10883282:
± gives the standard deviation of the averaged measurements.

Key:
Experiment in all cases: relative viability vs DMSO control (72 h) (fraction); higher = more viable cells
[1] = test system: SK-LMS-1
Procedure, shortened: (§1)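 Sarcoma cell lines went into 384-well plates at densities chosen to reach 80–90% confluence. After 24 h, each well received 2.5 µl of serially diluted compound, with source plates running from 10 mM to 0.0002 mM, and the plates were kept 72 h at 37 °C, 5% CO2, alongside 0.1% DMSO vehicle and a 5 µM positive control. Relative viability was derived from ATPLite readings as percent growth and averaged over up to triplicate wells. The data were then rescaled so that 1 stands for full and 0 for none.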

[2] = test system: VA-ES-BJ
Procedure, shortened: as §1

[3] = test system: KHOS-240S
Procedure, shortened: as §1

[4] = test system: A204
Procedure, shortened: as §1

[5] = test system: MES-SA
Procedure, shortened: as §1

[6] = test system: SW1353
Procedure, shortened: as §1

[7] = test system: SK-ES-1
Procedure, shortened: as §1

[8] = test system: RD
Procedure, shortened: as §1

[9] = test system: SW872
Procedure, shortened: as §1

[10] = test system: G401
Procedure, shortened: as §1

[11] = test system: HS729
Procedure, shortened: as §1

[12] = test system: SW982
Procedure, shortened: as §1

Work on COc1cc(Nc2c(C#N)cnc3cc(OCCCN4CCN(C)CC4)c(OC)cc23)c(Cl)cc1Cl [Bosutinib] yielded a relative viability ([1]; 0.00017 µM) of 1.06 ± 0.012, a relative viability ([1]; 0.00051 µM) of 1.07 ± 0.048 and a relative viability ([1]; 0.00152 µM) of 1.08 ± 0.031. The relative viability ([1]; 0.00457 µM) was 1.07 ± 0.047, the relative viability ([1]; 0.01372 µM) was 1.1 ± 0.066 and the relative viability ([1]; 0.04115 µM) was 1.16 ± 0.045. The relative viability ([1]; 0.1235 µM) was 1.22 ± 0.058, the relative viability ([1]; 0.3704 µM) was 1.24 ± 0.028 and the relative viability ([1]; 1.111 µM) was 1.1 ± 0.032. It also gave a relative viability ([1]; 3.333 µM) of 0.873 ± 0.02, a relative viability ([1]; 10 µM) of 0.0696 ± 0.0023 and a relative viability ([2]; 0.00017 µM) of 1.11 ± 0.045. For the same compound, the relative viability ([2]; 0.00051 µM) was 1.14 ± 0.029, the relative viability ([2]; 0.00152 µM) was 1.12 ± 0.014 and the relative viability ([2]; 0.00457 µM) was 1.12 ± 0.033. It also gave a relative viability ([2]; 0.01372 µM) of 1.14 ± 0.037, a relative viability ([2]; 0.04115 µM) of 1.16 ± 0.056 and a relative viability ([2]; 0.1235 µM) of 1.14 ± 0.045. The relative viability ([2]; 0.3704 µM) was 1.03 ± 0.039, the relative viability ([2]; 1.111 µM) was 0.729 ± 0.019 and the relative viability ([2]; 3.333 µM) was 0.545 ± 0.0093. It also gave a relative viability ([2]; 10 µM) of 0.0514 ± 0.0046, a relative viability ([3]; 0.00017 µM) of 1.07 ± 0.036 and a relative viability ([3]; 0.00051 µM) of 1.08 ± 0.048. The relative viability ([3]; 0.00152 µM) was 1.08 ± 0.066, the relative viability ([3]; 0.00457 µM) was 1.1 ± 0.082 and the relative viability ([3]; 0.01372 µM) was 1.08 ± 0.04. The relative viability ([3]; 0.04115 µM) was 1.06 ± 0.051, the relative viability ([3]; 0.1235 µM) was 1.04 ± 0.041 and the relative viability ([3]; 0.3704 µM) was 0.962 ± 0.013. For the same compound, the relative viability ([3]; 1.111 µM) was 0.734 ± 0.023, the relative viability ([3]; 3.333 µM) was 0.49 ± 0.013 and the relative viability ([3]; 10 µM) was 0.0326 ± 0.0035. It also gave a relative viability ([4]; 0.00017 µM) of 1.09 ± 0.039, a relative viability ([4]; 0.00051 µM) of 1.12 ± 0.02 and a relative viability ([4]; 0.00152 µM) of 1.09 ± 0.07. For the same compound, the relative viability ([4]; 0.00457 µM) was 1.13 ± 0.049, the relative viability ([4]; 0.01372 µM) was 1.17 ± 0.036 and the relative viability ([4]; 0.04115 µM) was 1.21 ± 0.014. For the same compound, the relative viability ([4]; 0.1235 µM) was 1.23 ± 0.015, the relative viability ([4]; 0.3704 µM) was 1.21 ± 0.069 and the relative viability ([4]; 1.111 µM) was 1.111 ± 0.01. The relative viability ([4]; 3.333 µM) was 0.807 ± 0.087, the relative viability ([4]; 10 µM) was 0.259 ± 0.04 and the relative viability ([5]; 0.00017 µM) was 1.018 ± 0.0064. The relative viability ([5]; 0.00051 µM) was 0.992 ± 0.01, the relative viability ([5]; 0.00152 µM) was 1.01 ± 0.036 and the relative viability ([5]; 0.00457 µM) was 0.979 ± 0.067. For the same compound, the relative viability ([5]; 0.01372 µM) was 0.989 ± 0.03, the relative viability ([5]; 0.04115 µM) was 0.993 ± 0.03 and the relative viability ([5]; 0.1235 µM) was 0.994 ± 0.011. For the same compound, the relative viability ([5]; 0.3704 µM) was 0.926 ± 0.049, the relative viability ([5]; 1.111 µM) was 0.675 ± 0.022 and the relative viability ([5]; 3.333 µM) was 0.432 ± 0.015. For the same compound, the relative viability ([5]; 10 µM) was 0.228 ± 0.061, the relative viability ([6]; 0.00017 µM) was 1.11 ± 0.036 and the relative viability ([6]; 0.00051 µM) was 1.11 ± 0.031. For the same compound, the relative viability ([6]; 0.00152 µM) was 1.12 ± 0.011, the relative viability ([6]; 0.00457 µM) was 1.09 ± 0.03 and the relative viability ([6]; 0.01372 µM) was 1.1 ± 0.019. For the same compound, the relative viability ([6]; 0.04115 µM) was 1.13 ± 0.04, the relative viability ([6]; 0.1235 µM) was 1.09 ± 0.021 and the relative viability ([6]; 0.3704 µM) was 1.04 ± 0.023. For the same compound, the relative viability ([6]; 1.111 µM) was 0.896 ± 0.061, the relative viability ([6]; 3.333 µM) was 0.673 ± 0.024 and the relative viability ([6]; 10 µM) was 0.0287 ± 0.0036. The relative viability ([7]; 0.00017 µM) was 1.05 ± 0.056, the relative viability ([7]; 0.00051 µM) was 1.06 ± 0.014 and the relative viability ([7]; 0.00152 µM) was 1.06 ± 0.016. For the same compound, the relative viability ([7]; 0.00457 µM) was 1.07 ± 0.036, the relative viability ([7]; 0.01372 µM) was 1 ± 0.032 and the relative viability ([7]; 0.04115 µM) was 1.02 ± 0.056. The relative viability ([7]; 0.1235 µM) was 0.935 ± 0.025, the relative viability ([7]; 0.3704 µM) was 0.732 ± 0.019 and the relative viability ([7]; 1.111 µM) was 0.482 ± 0.042. The relative viability ([7]; 3.333 µM) was 0.303 ± 0.0096, the relative viability ([7]; 10 µM) was 0.136 ± 0.0046 and the relative viability ([8]; 0.00017 µM) was 1.11 ± 0.031. For the same compound, the relative viability ([8]; 0.00051 µM) was 1.11 ± 0.032, the relative viability ([8]; 0.00152 µM) was 1.12 ± 0.05 and the relative viability ([8]; 0.00457 µM) was 1.11 ± 0.065. It also gave a relative viability ([8]; 0.01372 µM) of 1.11 ± 0.032, a relative viability ([8]; 0.04115 µM) of 1.14 ± 0.045 and a relative viability ([8]; 0.1235 µM) of 1.15 ± 0.078. For the same compound, the relative viability ([8]; 0.3704 µM) was 1.12 ± 0.071, the relative viability ([8]; 1.111 µM) was 0.88 ± 0.045 and the relative viability ([8]; 3.333 µM) was 0.665 ± 0.03. It also gave a relative viability ([8]; 10 µM) of 0.0202 ± 0.003, a relative viability ([9]; 0.00017 µM) of 1.1 ± 0.026 and a relative viability ([9]; 0.00051 µM) of 1.131 ± 0.0085. It also gave a relative viability ([9]; 0.00152 µM) of 1.12 ± 0.029, a relative viability ([9]; 0.00457 µM) of 1.12 ± 0.03 and a relative viability ([9]; 0.01372 µM) of 1.12 ± 0.015. It also gave a relative viability ([9]; 0.04115 µM) of 1.123 ± 0.011, a relative viability ([9]; 0.1235 µM) of 1.085 ± 0.01 and a relative viability ([9]; 0.3704 µM) of 0.984 ± 0.029. For the same compound, the relative viability ([9]; 1.111 µM) was 0.727 ± 0.024, the relative viability ([9]; 3.333 µM) was 0.555 ± 0.065 and the relative viability ([9]; 10 µM) was 0.0547 ± 0.0073. For the same compound, the relative viability ([10]; 0.00017 µM) was 1.09 ± 0.028, the relative viability ([10]; 0.00051 µM) was 1.09 ± 0.057 and the relative viability ([10]; 0.00152 µM) was 1.08 ± 0.05. It also gave a relative viability ([10]; 0.00457 µM) of 1.06 ± 0.027, a relative viability ([10]; 0.01372 µM) of 1.09 ± 0.04 and a relative viability ([10]; 0.04115 µM) of 1.09 ± 0.038. The relative viability ([10]; 0.1235 µM) was 1.08 ± 0.03, the relative viability ([10]; 0.3704 µM) was 1.08 ± 0.019 and the relative viability ([10]; 1.111 µM) was 1.03 ± 0.053. For the same compound, the relative viability ([10]; 3.333 µM) was 0.909 ± 0.014, the relative viability ([10]; 10 µM) was 0.0203 ± 0.014 and the relative viability ([11]; 0.00017 µM) was 1.06 ± 0.082. The relative viability ([11]; 0.00051 µM) was 1.04 ± 0.08, the relative viability ([11]; 0.00152 µM) was 1.1 ± 0.029 and the relative viability ([11]; 0.00457 µM) was 1.05 ± 0.031. The relative viability ([11]; 0.01372 µM) was 1.07 ± 0.046, the relative viability ([11]; 0.04115 µM) was 1.05 ± 0.041 and the relative viability ([11]; 0.1235 µM) was 0.978 ± 0.091. The relative viability ([11]; 0.3704 µM) was 0.922 ± 0.094, the relative viability ([11]; 1.111 µM) was 0.773 ± 0.038 and the relative viability ([11]; 3.333 µM) was 0.79 ± 0.055. It also gave a relative viability ([11]; 10 µM) of 0.107 ± 0.11, a relative viability ([12]; 0.00017 µM) of 1.05 ± 0.022 and a relative viability ([12]; 0.00051 µM) of 1.08 ± 0.062. The relative viability ([12]; 0.00152 µM) was 1.08 ± 0.051, the relative viability ([12]; 0.00457 µM) was 1.08 ± 0.041 and the relative viability ([12]; 0.01372 µM) was 1.09 ± 0.061. For the same compound, the relative viability ([12]; 0.04115 µM) was 1.08 ± 0.061, the relative viability ([12]; 0.1235 µM) was 1.05 ± 0.043 and the relative viability ([12]; 0.3704 µM) was 0.816 ± 0.034. For the same compound, the relative viability ([12]; 1.111 µM) was 0.511 ± 0.0091, the relative viability ([12]; 3.333 µM) was 0.359 ± 0.054 and the relative viability ([12]; 10 µM) was 0.0126 ± 0.001.
